This is an account of results in PubChem BioAssay (NCI).

Common to all, as to assay: NCI anticancer screen, dose series, 48 h
Assay [1] has as its system HCT-15 colon.
Assay [2] has as its system NCI-H226 lung.
In assay [3] the test system is RPMI-8226 leukemia.
For assay [4], the system named is NCI-H23 lung.
The test system of assay [5] is K-562 leukemia.
Assay [6] has as its system A498 renal.
The test system of assay [7] is SNB-75 CNS.
Assay [8] concerns MCF7 breast.
Assay [9] concerns NCI/ADR-RES ovarian.

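96-well plates; 48 h exposure; 5 concentrations. Endpoints by linear interpolation between flanking doses. Not reached: highest tested concentration assigned. GI50 is the concentration that inhibits growth by half. TGI is the concentration that stops growth completely.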

As for `CC1=C[P+](Cc2ccccc2)(c2ccccc2)CC1` (stereo not given), the TGI in [1], in [2], in [3], in [4], in assay [5] and in assay [6] was more than 100 µM each time. Besides, the TGI in assay [7] is more than 100 µM.

As for `O=C1CC(O)(c2ccccc2)C(c2ccccc2)=C1c1ccccc1` (stereo not given), the TGI in [1] is more than 100 µM; in [3] it was 57.7 µM; in assay [4] it was more than 100 µM; in assay [5], more than 100 µM; in assay [7], 96.7 µM.

Turning to `CCOc1ccc(NC(=O)C2=C(C)NC(C)=C(C(=O)Nc3ccc(OCC)cc3)C2c2ccccc2)cc1`, the TGI in assay [2], in assay [3], in [4], in assay [5], in assay [6] and in [7] was more than 100 µM in each case.

Regarding `Clc1cc2n[se]nc2cc1Cl`, the TGI in assay [1], in assay [3], in assay [4], in [5], in [6] and in assay [7] was more than 100 µM throughout.

Take `CCC[CH2][Sn]1([CH2]CCC)[O]C(=O)c2ccc(C)cc2[O]1`: the GI50 is 1.5 µM in assay [2]; 0.21 µM in [3]; 0.472 µM in [4]; 0.247 µM in [5]; 0.367 µM in assay [6]; 0.226 µM in [7]. The TGI in assay [2] was determined as 2.93 µM; in assay [3], 0.76 µM; in assay [4] it was 1.76 µM; in assay [5], 0.846 µM; in assay [6], 1.06 µM; in [7], 0.659 µM.

On to `C[n+]1ccc(-c2c3nc(c(-c4cc[n+](C)cc4)c4ccc([n-]4)c(-c4cc[n+](C)cc4)c4nc(c(-c5cc[n+](C)cc5)c5ccc2[n-]5)C=C4)C=C3)cc1.[I-].[Zn+2]`, for which the GI50 was more than 100 µM in assay [1]; 14.9 µM in assay [2]; 32.1 µM in assay [3]; 26.8 µM in [4]; 23 µM in assay [5]; 8.34 µM in [6]. In addition, the GI50 in assay [7] is 12.5 µM. In addition, the TGI in [1] is more than 100 µM; in assay [2], 48.3 µM; in [3] it was more than 100 µM; in assay [4], 59.2 µM; in assay [5], 59.8 µM; in [6] it was 31.3 µM. In [7], this compound registered a TGI of 32.8 µM.

In the case of `CSCCOC(=O)C(=[N+]=[N-])c1ccc([N+](=O)[O-])cc1`, the TGI in assay [1], in assay [2], in assay [3], in [4], in assay [5] and in [7] was more than 100 µM throughout.

In the case of `NCCN1C(=O)C2C3c4ccccc4C(c4ccccc43)C2C1=O` (stereo not given), the TGI in assay [1], in [2], in [3], in assay [4], in assay [5] and in assay [6] was more than 100 µM throughout. In assay [7], this compound displayed a TGI of more than 100 µM.

With `COc1cc2c(cc1OC)C(=O)Cc1ccc(OC)c(OC)c1CN(C)CC2`, the TGI in assay [1] is more than 100 µM; in assay [2] it was more than 100 µM; in [3], more than 100 µM; in [4], more than 100 µM; in [5], more than 100 µM; in assay [6] it was 48.4 µM. The compound further had a TGI in [7] of more than 100 µM.

In the case of `OC1C2CCC1C1C3C=CC(C3)C21` (stereo not given), the TGI in assay [1], in assay [2], in assay [3], in [4], in [5] and in [7] was more than 100 µM each time.

Turning to `CCOC(=O)c1ccc(NC(=O)SCCC(=O)O)cc1`, the TGI in assay [1], in assay [2], in assay [3], in [4], in assay [5] and in assay [6] was more than 100 µM each time. This compound gave a TGI in [7] of 23.1 µM.

On to `c1ccc2c(c1)[nH]c1c2nc2ncccn21`, for which the TGI in [2], in [4], in assay [5], in assay [6] and in [7] was more than 100 µM in each case.

Turning to `O=S(O)CCCSSc1ccccc1`, the TGI is more than 100 µM in assay [1]; more than 100 µM in [4]; more than 100 µM in assay [5]; more than 100 µM in [6]; 88.2 µM in [7].

Consider `CCOC(=O)/C(C#N)=C1/C(O)=C(C(=O)OC)C(C(=O)OC)=C1C(=O)OC`, for which the TGI in assay [1], in assay [3], in assay [4], in [5] and in [7] was more than 100 µM in each case.

With `O=C(NCC(O)CNC(=O)C(F)(F)F)C(F)(F)F`, the TGI in assay [1], in assay [2], in [3], in assay [4], in assay [5] and in [6] was more than 100 µM in each case. The compound further yielded a TGI in assay [7] of more than 100 µM.

On to `Cc1nn(C)cc1P(=S)(c1ccccc1)c1ccccc1`, for which the TGI in assay [1] was more than 100 µM; in [3], more than 100 µM; in [4] it was more than 100 µM; in [5], more than 100 µM; in assay [6] it was more than 100 µM; in assay [7], 85.1 µM.

As for `C=C(C)[C@@H]1CC[C@]2(CO)CC[C@]3(C)[C@H](CC[C@@H]4[C@@]5(C)CCC(NCCc6ccc(O)cc6)C(C)(C)[C@@H]5CC[C@]43C)[C@@H]12` (stereo not given in full), the GI50 in [8] was 0.912 µM; in assay [1], 1.23 µM; in assay [4], 1.79 µM; in [9], 1.63 µM; in assay [5], 0.31 µM; in [6], 1.32 µM. The TGI was found to be 2.57 µM in assay [8]; 2.68 µM in assay [1]; 3.35 µM in assay [4]; 3.45 µM in assay [9]; 1.66 µM in assay [5]; 2.69 µM in [6].

As to `NC(N)=NS(=O)(=O)c1ccc(Nc2c3ccccc3nc3c(C(=O)Nc4ccc(S(N)(=O)=O)cc4)ccc(Cl)c23)cc1`, the TGI in assay [1], in assay [2], in assay [3], in assay [4], in assay [5] and in [6] was more than 100 µM each time. The compound also returned a TGI in [7] of more than 100 µM.

In the case of `CC1OC(OC2C(CO)OC(O[C@H]3CC[C@@]4(C)C(=CC[C@H]5[C@@H]6C[C@@H]7O[C@]8(CC[C@@H](C)CN8)[C@@H](C)[C@@H]7[C@@]6(C)CC[C@@H]54)C3)C(O)C2O)C(O)C(O)C1O` (stereo not given in full), the TGI in [1], in assay [3], in assay [4], in assay [5], in assay [6] and in [7] was more than 100 µM in each case.

Consider `Fc1cccc2c1cc1ccc3cccc4ccc2c1c34`, for which the TGI in assay [2], in [4], in [5], in [6] and in [7] was more than 100 µM in each case.

Regarding `O=C1c2ccccc2C(=O)N1C/C=C/CO`, the TGI in [1], in assay [2], in [3], in [5], in assay [6] and in assay [7] was more than 100 µM in each case.

For the compound `CCOc1ccccc1NC(=O)CCc1n[nH]c(=S)o1`, the TGI in [2], in assay [3], in assay [4], in [5] and in assay [7] was more than 100 µM throughout.

For the compound `COC(=O)c1ccc(Cl)cc1NC(=O)C1CCCCC1`, the TGI in [1], in assay [2], in assay [3], in assay [4] and in [5] was more than 100 µM each time.

As to `CC[C@@H]1C[C@H]2CC3c4[nH]c5ccc(O)cc5c4CCN(C2)C31`, the TGI in [1], in assay [2], in assay [3], in assay [4], in assay [5] and in [7] was more than 100 µM in each case.

Take `O=C(COC(=O)c1cccc2c(=O)c3ccccc3[nH]c12)Nc1ccccc1`: the TGI in [2] is more than 100 µM; in assay [3], 83.5 µM; in assay [4] it was 58.9 µM; in assay [5], more than 100 µM; in assay [6] it was more than 100 µM; in assay [7], more than 100 µM.

For the compound `N#C/C(=C/Sc1ccccc1)C(=O)O`, the TGI in [1] was more than 100 µM; in assay [2], 58.7 µM; in [3], more than 100 µM; in assay [4], more than 100 µM; in [5], more than 100 µM; in assay [7], 55.9 µM.
